Test results as given in patent US4177269A, “Novel 17-esters of 17α-hydroxy gestogens, compositions containing such compounds, processes for their preparation and methods of treatment therewith” (Aktiebolaget Leo, priority 1976, dated 1979).

Experiments:
[1] = test system: Hepatome AH 130; assay: Hepatome AH 130 tumour growth inhibition in rats; type: in vivo, Sprague-Dawley rats; design: ED50: unit not given here; conditions: one i.p. injection, dose causing 50 percent reduction of tumour size, killed 8th day
From the text: (§1) LD50 is the dose that causes a 50 percent lethality of the animals, and ED50 is the dose that causes a 50 percent reduction of tumour size.
(§2) The experimental design and the interpretation of the results are in accordance with the standards set by the CCNSC (Cancer Chemotherpy Reports, January 1959 and December 1962).
(§3) Experimental animals: Sprague-Dawley rats.
(§4) Tumour implant: 5 × 10^6 tumour cells i.p.
(§5) Therapy: One injection i.p. on the day following implanta-
(§6) Termination: The animals are killed on the 8th day.
(§7) Evaluation: Weights of tumours of test animals are compared
(§8) with those of control animals.

[2] = Hepatome AH 130 tumour growth inhibition in rats; type: in vivo, Sprague-Dawley rats; design: ED50: unit not given here; conditions: rat, in vivo, ip, one i.p. injection; for LD50: dose causing 50 percent lethality, column head not given; for selectivity ratio: read-out: T.I. (LD50/ED50)
From the text: as §1, §2, §3, §4, §5, §6, §7, §8

[3] = target: T1, rabbit uterus cytosol progesterone receptor (Oryctolagus cuniculus, UniProt P06186); assay: Relative affinity to rabbit uterus cytosol progesterone receptor (3H-progesterone competition); type: binding; conditions: compared to progesterone; 50% competition with 3H-progesterone; 16-18 hours at 4° C.
T1 construct: One ml portions of the supernatant (rabbit uterus cytosol) were pipetted into small centrifuge tubes of glass; from tissue; host or cells: uterus cytosol (105,000×g supernatant) of female rabbits pretreated with polyestradiol phosphate
T1 sequence (P06186 1-930): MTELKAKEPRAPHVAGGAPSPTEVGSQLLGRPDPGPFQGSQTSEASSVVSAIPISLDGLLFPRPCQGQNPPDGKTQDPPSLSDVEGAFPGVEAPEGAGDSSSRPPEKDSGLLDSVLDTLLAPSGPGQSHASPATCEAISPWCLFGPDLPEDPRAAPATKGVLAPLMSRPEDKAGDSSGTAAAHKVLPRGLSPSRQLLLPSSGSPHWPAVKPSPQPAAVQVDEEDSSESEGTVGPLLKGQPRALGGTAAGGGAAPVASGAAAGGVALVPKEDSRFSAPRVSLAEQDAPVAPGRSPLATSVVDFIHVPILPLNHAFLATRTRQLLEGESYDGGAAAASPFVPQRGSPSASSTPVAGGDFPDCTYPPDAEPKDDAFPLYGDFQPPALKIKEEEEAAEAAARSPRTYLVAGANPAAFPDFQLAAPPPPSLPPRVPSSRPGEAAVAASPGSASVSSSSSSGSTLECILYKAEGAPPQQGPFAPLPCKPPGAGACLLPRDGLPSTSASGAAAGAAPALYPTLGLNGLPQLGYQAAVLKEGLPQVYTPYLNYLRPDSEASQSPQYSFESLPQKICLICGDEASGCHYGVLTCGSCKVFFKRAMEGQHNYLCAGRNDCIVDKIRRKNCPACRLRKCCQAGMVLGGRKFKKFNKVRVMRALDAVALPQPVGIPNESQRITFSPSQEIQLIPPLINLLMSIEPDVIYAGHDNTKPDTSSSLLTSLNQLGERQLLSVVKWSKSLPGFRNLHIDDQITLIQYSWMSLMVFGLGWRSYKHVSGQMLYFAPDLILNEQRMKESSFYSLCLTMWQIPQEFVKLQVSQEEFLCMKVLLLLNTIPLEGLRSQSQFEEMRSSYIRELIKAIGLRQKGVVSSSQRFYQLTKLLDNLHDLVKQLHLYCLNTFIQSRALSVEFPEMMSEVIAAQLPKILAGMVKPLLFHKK
Description: This example illustrates the compound's relative affinity to rabbit uterus cytosol progesterone receptor compared with progesterone. The method used for this purpose is a modification of methods already described by Kontula, K. et al. (Acta Endocrinol. 78 (1975) 574) and Terenius, L. (Steroids 23 (1974) 909) among others.
Female rabbits (3-4 pounds) from Knut Larsen, Uddevalla, Sweden, were injected i.m. with 1 mg Estradurin (polyestradiol phosphate, 1 mg/ml saline, AB Leo, Sweden). After one week, the animals were killed and the uteri were immediately removed, chilled and cut free from connective tissues. All the following operations were performed at 0°-4° C. The uteri were cut into small pieces and washed several times with 3 vol. of buffer at pH 7.4 containing 50 MM TRIS-HCl, 1.5 mM EDTA, 3 mM NaN3, 2 mM dithiothreitol, and 25% glycerol (by vol.). The tissue was homogenized in the same buffer (3 vol.) with four 15-s bursts at rheostat setting 36-37 of an Ultra Turrax (Janke and Kunkel KG, Staufen, The Federal Republic of Germany). The homogenate was centifuged in a Sorvall GLC-2 centrifuge for 15 min at 600×g. The supernatanate was recentrifuged at 105,000×g for 60 min in a Beckman ultracentrifuge model LB-65-B with rotor SW 56.
One ml portions of the supernatant (rabbit uterus cytosol) were pipetted into small centrifuge tubes of glass and were kept at -70° C. until used. The protein content was determined by the method of Lowry (J. Biol. Chem. 193 (1951) 265).
10.0 mg of each compound was dissolved in 10.0 ml 99.5% ethanol. 100 μl of this standard solution was diluted to 5.0 ml ethanol/glycerol 1:1 (v/v). The ethanol was evaporated by blowing air at 40° C. on the solution. The volume was then adjusted to 5.0 ml by adding buffer without glycerol.
The compounds were diluted with glycerol/buffer 1:1 to final concentrations between 10^-8 -10^-5 M in total 300 μl incubation media. 100 μl of each compound and of each dilution were incubated in small centrifuge tubes (2 ml) together with 100 μl (10 pg) ^3 H-progesterone (1,2,6,7-3H-progesterone, 47.8 Ci/mMol, The Radiochemical Centre, Amersham, England) and 100 μl cytosol adjusted with buffer to a final concentration of about […]. The incubations were carried out for 16-18 hours at 4° C.
The separation of bound from free radioactivity was carried out at 0° C. using the dextran coated charcoal technique (DCC). To each incubation tube was added 0.5 ml DCC-suspension (0.05% dextran-70, Pharmacia, Uppsala, Sweden and 0.5% Norit A, Sigma, Saint Louis, Missouri, U.S.A.) The tubes were agitated 2-3 times during 10 minutes whereupon they were centrifuged at 100×g for five minutes. The supernatantes were decanted directly into Scintillation vials (polyethene, Packard) containing 10 ml InstaGel (Packard). The radioactivity was counted in a Philip's liquid scintillation spectrometer Model PW 4510/00 with external standard and automatic quenching correction.
To incubation tubes were added 100 μl cytosol, 100 μl ^3 H-progesterone (10 pg) and 100 μl of different dilutions of non-radioactive progesterone in glycerol/buffer 1:1 ranging from 0-10^4 pg/100 μl. The tubes were incubated parallel with the compounds described above. The radioactivity was calculated by substracting the counted radioactivity in the incubation tubes with the radioactivity counted in incubations tubes in which the cytosol was replaced with buffer (100 μl).
The concentration of non-radioactive progesterone [P]i which competes for 50% of bound radioactive progesterone was calculated from the standard curve constructed [B] i/[B] o=0.5 where [B]i is the bound radioactivity at different concentrations of non-radioactive progesterone and [B]o is the bound radioactivity at progesterone concentration zero.
In the same manner, curves were constructed for each compound X and the concentration for each compound which competes for 50% with bound ^3 H-progesterone ([X]50) was calculated. […]

[4] = test system: Ehrlich ascites tumour, ELD hyperdiploid; assay: Ehrlich ascites tumour, ELD hyperdiploid (46 chromosomes), growth inhibition in mice; type: in vivo, SPF NMRI mice; conditions: one i.p. injection; for Mortality / Tumour weight Treated/Control: 50 mg/kg; for Tumour weight Treated/Control: 8th day
From the text: as §2
Ehrlich ascites tumour, ELD hyperdiploid
Experimental animals: SPF NMRI mice.
Tumour implant: 2 × 10^6 tumour cells i.p.
as §5, §6
Evaluation: Weight of tumours of test animals compared with
those of control animals.

[5] = Walker carcinosarcoma 256 tumour growth inhibition in rats; type: in vivo, Sprague-Dawley rats; design: ED50: unit: mg/kg; conditions: rat, in vivo, po, daily p.o. for 5 days; for LD50: dose causing 50 percent lethality; for selectivity ratio: read-out: T.I. (LD50/ED50)
From the text: as §1, §2
(§9) Walker carcinosarcoma 256.
as §3
(§10) Tumour implant: Tumour pieces with 2-4 mm diameter, sub-
(§11) Therapy: Daily p.o. administration for 5 days starting on
(§12) the day following implantation.
(§13) Termination: The animals are killed on the 9th day.
as §7, §8

[6] = test system: Walker carcinosarcoma 256; assay: as above; type: in vivo, Sprague-Dawley rats; design: ED50: unit: mg/kg; conditions: daily p.o. for 5 days, dose causing 50 percent reduction of tumour size, killed 9th day
From the text: as §1, §2, §9, §3, §10, §11, §12, §13, §7, §8

Structure (SMILES) | ED50 [1] | LD50 [2] | selectivity ratio [2] | relative binding affinity (RBA) [3] | Mortality [4] | Tumour weight Treated/Control [4] | LD50 [5] | selectivity ratio [5] | ED50 [6] | antitumour activity ([4]; result in words)
CC(=O)[C@@]1(OC(=O)COC(=O)Cc2ccc(N(CCCl)CCCl)cc2)CC[C@H]2[C@@H]3CCC4=CC(=O)CC[C@]4(C)[C@H]3CC[C@@]21C [3:1, 17α-/4-(N,N-bis(2-chloroethyl)amino)phenylacetoxyacetoxy/pregn-4-ene-3,20-dione] | 3 | > 250 mg/kg | > 83 | 6.6% | 1/12 | 3% | > 250 mg/kg | > 31 | 8 | –
CC(=O)[C@@]1(OC(=O)COC(=O)CCCc2ccc(N(CCCl)CCCl)cc2)CC[C@H]2[C@@H]3CCC4=CC(=O)CC[C@]4(C)[C@H]3CC[C@@]21C [Compound 3:2, 17α-/4-(4-(N,N-bis(2-chloroethyl)amino)phenyl)butanoyloxyacetoxy/pregn-4-ene-3,20-dione] | 100 | > 1000 mg/kg | > 10 | 0.7% | 0/12 | 1% | > 250 mg/kg | > 83 | 3 | –
CC(=O)[C@@]1(OC(=O)CCCOC(=O)CCCc2ccc(N(CCCl)CCCl)cc2)CC[C@H]2[C@@H]3CCC4=CC(=O)CC[C@]4(C)[C@H]3CC[C@@]21C [Compound 3:3] | 6 | 180 mg/kg | 30 | 0.6% | – | – | 40 mg/kg | 20 | 2 | exhibit antitumour activity
